Data on four compounds can be found in patent publication US6589990B1, “Methods and compositions for misoprostol compound treatment of erectile dysfunction” (priority 1997, dated 2003).

Read-outs that look alike come from different tables or passages of the source. Some results are limits rather than exact numbers.

The subject of data set [1] is vessels of the glans penis. The experiment in a line: Vasodilatory action, into the corpus cavernosum versus topical. The data set is classed as in vivo. As to conditions: external application; compared with misoprostol. The text has this:
This is due to the differences in the mechanism of action on erectile function between misoprostol and other vasodilators (e.g. alprostadil): misoprostol applied topically can penetrate into the corpora cavernosa and can act on the smooth muscle fibers of the vessels, compared to other vasodilators. Further, its major site of action is on the vessels of the glans penis, and to a lesser extent, the prepuce.

The nature of data set [2]: Single high dosage, systemic undesirable effects (Example 9). Particulars: in the presence of α-cyclodextrin.
The conditions of data set [3]: cited from earlier work.
Data set [4] relates to human male subjects having ED. The experiment in a line: Clinical trials in human male subjects having ED. The data set is classed as in vivo. Here is the method: Subjects were 52 men aged 22-67 years, with ED of various causes. […] In all trials with these subjects, the following methods were applied successively for from a few days to 4 weeks: intracavernosal injection of 1.0 ml papaverine solution, 40 μγ/ml; […]; […]; topical application to the glans penis 0.08 to 0.1 ml, misoprostol gel 1000 μg/ml; intraurethral application of 0.08 to 0.1 ml misoprostol gel 1000 μg/ml; and topical application to the glans penis 0.1 ml. Gel of placebo.
In the tests using either the gel or cream containing about […] of misoprostol per 0.1 ml, the formulation was applied by the patients themselves using their finger and a few retroactive movements of the prepuce on the glans of penis until the ointment was completely absorbed. The intraurethral gel was instilled by the patients with help of a thin syringe and a lubricating medium (propylene glycol or glycerin) to facilitate insertion of the syringe.
In some patients with venous leak problems, a bandage tourniquet with a rubber band (or condom) on the base of the penis was applied 15-20 minutes after application of misoprostol. This method was particularly effective. […] In various subjects with ED due to one of several different causes, “pelvic exercises” were recommended (Kegel exercises) while the erection was developing. […] All tests were performed in the clinic without visual or any other type of stimulation.

The next data set can be described thus: Solubility in water. In kind it is physicochemical.
The conditions of data set [5]: human, in vivo.
For data set [6] the following is noted: at 35° C.; cited from earlier work.
The mark [7] stands for this setting: total (N = 52), externally applied gel, 80-100 μg.
The mark [8] stands for this setting: total (N = 52), intraurethral applied gel, 80-100 μg.
Setting [9] is: total (N = 52), intracavernosal injection, 0.5 ml of 1.0 mg/ml.
The mark [10] stands for this setting: total (N = 52), intraurethral ointment or γ-cyclodextrin complex in K-Y jelly, 1000 μg PGE1 in 0.1 ml.
Setting [11] is: total (N = 52), intracavernosal injection, 1 ml of 4%.

Take `CCCCC(C)(O)C/C=C/[C@H]1[C@H](O)CC(=O)[C@@H]1CCCCCCC(=O)O` (mixture of isomers) [misoprostol acid]: the topical vasodilation entry in data set [1] is listed as “equivalent strong topical vasodilation”.

Turning to `CCCCC(C)(O)C/C=C/[C@H]1[C@H](O)CC(=O)[C@@H]1CCCCCCC(=O)OC` (mixture of isomers) [misoprostol, (11a 13E)-(±)-11,16-dihydroxy-16-methyl-9-oxoprost-13-en-1-oic acid methyl ester], the “single higher dose allowed, undesirable effects reduced or eliminated” value in data set [2] was more than 2000 micrograms. The “undesirable effect of oral therapy” value in data set [3] is “male impotence”. In addition, the “allergic or other topical reaction” value in data set [4] (application to glans penis or urethra) is given as “No allergic or any other topical reaction was reported except for redness of the glans”. The “subjects having a positive pharmacological outcome” value in data set [4] (hormonal ED (N = 1), externally applied gel, 80-100 μg) was determined as 1; in data set [4] (hormonal ED (N = 1), intraurethral applied gel, 80-100 μg), 1; in data set [4] (neurogenic ED (N = 5), externally applied gel, 80-100 μg) it was 4; in data set [4] (neurogenic ED (N = 5), intraurethral applied gel, 80-100 μg), 5; in data set [4] (psychogenic ED (N = 15), externally applied gel, 80-100 μg), 13; in data set [4] (psychogenic ED (N = 15), intraurethral applied gel, 80-100 μg), 14. The “subjects having a positive pharmacological outcome” value in data set [4] (setting [7]) is reported as 32; in data set [4] (setting [8]) it was 38; in data set [4] (undetermined etiology (N = 7), externally applied gel, 80-100 μg), 4; in data set [4] (undetermined etiology (N = 7), intraurethral applied gel, 80-100 μg) it was 5; in data set [4] (vascular ED (N = 24), externally applied gel, 80-100 μg) it was 10; in data set [4] (vascular ED (N = 24), intraurethral applied gel, 80-100 μg), 13. Moreover, the entries for the “percent of subjects having a positive pharmacological outcome” value in data set [4] (setting [7]) and in data set [4] (setting [8]) were 62% and 73%, respectively. In addition, the “solubility in water (in words)” value in “Solubility in water” is listed as “water soluble”. Further, the “single high dose that can cause systemic undesirable effects (fatigue, erythema and diarrhea)” value is more than 1000 micrograms in data set [5] and more than 1800 micrograms in data set [5] (male).

With `CCCCC[C@H](O)/C=C/[C@H]1[C@H](O)CC(=O)[C@@H]1CCCCCCC(=O)O` [alprostadil], the “subjects having a positive pharmacological outcome” value came out at 1 in data set [4] (hormonal ED (N = 1), intracavernosal injection, 0.5 ml of 1.0 mg/ml); 0 in data set [4] (hormonal ED (N = 1), intraurethral ointment or γ-cyclodextrin complex in K-Y jelly, 1000 μg PGE1 in 0.1 ml); 4 in data set [4] (neurogenic ED (N = 5), intracavernosal injection, 0.5 ml of 1.0 mg/ml); 1 in data set [4] (neurogenic ED (N = 5), intraurethral ointment or γ-cyclodextrin complex in K-Y jelly, 1000 μg PGE1 in 0.1 ml); 11 in data set [4] (psychogenic ED (N = 15), intracavernosal injection, 0.5 ml of 1.0 mg/ml); 9 in data set [4] (psychogenic ED (N = 15), intraurethral ointment or γ-cyclodextrin complex in K-Y jelly, 1000 μg PGE1 in 0.1 ml). In addition, the “subjects having a positive pharmacological outcome” value in data set [4] (setting [9]) is reported as 31; in data set [4] (setting [10]) it was 16; in data set [4] (undetermined etiology (N = 7), intracavernosal injection, 0.5 ml of 1.0 mg/ml) it was 5; in data set [4] (undetermined etiology (N = 7), intraurethral ointment or γ-cyclodextrin complex in K-Y jelly, 1000 μg PGE1 in 0.1 ml), 1; in data set [4] (vascular ED (N = 24), intracavernosal injection, 0.5 ml of 1.0 mg/ml), 10; in data set [4] (vascular ED (N = 24), intraurethral ointment or γ-cyclodextrin complex in K-Y jelly, 1000 μg PGE1 in 0.1 ml), 5. Also, the “percent of subjects having a positive pharmacological outcome” value in data set [4] (setting [9]) came to 60%; in data set [4] (setting [10]) it was 31%. In addition, the solubility in water in data set [6] is 8000 micrograms/100 ml.

Take `COc1ccc(Cc2nccc3cc(OC)c(OC)cc23)cc1OC` [papaverine]: the “subjects having a positive pharmacological outcome” value in data set [4] (hormonal ED (N = 1), intracavernosal injection, 1 ml of 4%) was 0; in data set [4] (neurogenic ED (N = 5), intracavernosal injection, 1 ml of 4%), 2; in data set [4] (psychogenic ED (N = 15), intracavernosal injection, 1 ml of 4%), 10; in data set [4] (setting [11]), 22; in data set [4] (undetermined etiology (N = 7), intracavernosal injection, 1 ml of 4%) it was 3; in data set [4] (vascular ED (N = 24), intracavernosal injection, 1 ml of 4%), 7. Further, in data set [4] (setting [11]), the “percent of subjects having a positive pharmacological outcome” value was found to be 42%.
